According to patent publication US10695396B2, “Malignant tumor target peptide” (NATIONAL INSTITUTE OF ADVANCED INDUSTRIAL SCIENCE AND …, priority 2016, dated 2020):
Like-named read-outs stand apart in the source and are kept apart here. Square brackets hold non-standard residues; d marks the D form. Peptide text beside a SMILES is read from it.

Key:
[1] = solubility and stability of IF7 (dosage form observations); type: physicochemical
Protocol: That is, IF7 peptide is protease sensitive and is susceptible to degradation. Indeed, in an experiment including intravenous administration of A488-IF7 to healthy mouse, the fluorescence signal of peripheral blood almost disappeared in about 1 hour (FIG. 5). […] In addition, IF7 has high hydrophobicity and causes difficulty in dosage form such as the need for addition of a surfactant after dissolution in DMSO, in an attempt to avoid precipitation when a compound bound with an anticancer drug is intravenously administered.

Anxa1 = biological target: T1, Anxa1 (Homo sapiens, UniProt P04083); assay: intermolecular interaction with Anxa1 measured by the QCM method; type: binding
T1 construct: human recombinant Anxa1 protein consisting of 346 amino acid residues; purchased ATGen Corporation (Seongnam-si, South Korea)
T1 sequence (P04083 1-346): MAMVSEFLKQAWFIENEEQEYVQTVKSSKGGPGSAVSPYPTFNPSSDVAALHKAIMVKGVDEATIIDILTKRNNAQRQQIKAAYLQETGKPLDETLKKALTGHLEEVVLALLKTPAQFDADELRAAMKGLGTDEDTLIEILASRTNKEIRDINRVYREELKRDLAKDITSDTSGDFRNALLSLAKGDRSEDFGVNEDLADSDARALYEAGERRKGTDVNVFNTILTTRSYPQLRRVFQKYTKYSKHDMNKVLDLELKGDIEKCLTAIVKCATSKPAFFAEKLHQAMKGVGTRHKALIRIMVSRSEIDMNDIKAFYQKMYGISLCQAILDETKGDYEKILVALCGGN
Protocol: As for the peptides of the sequences of LRFPTVL (SEQ ID NO: 13), SPTSLLF (SEQ ID NO: 14), MPTLTFR (SEQ ID NO: 15) and LLSWPSA (SEQ ID NO: 17) with high emergence frequency besides the TIT7 sequence (SEQ ID NO: 12) described in Example 1, similar to the dTIT7 peptide, peptides (dLRF7, dSPT7, dMPT7 and dLLS7 peptides) composed of D-form amino acids were synthesized and the intermolecular interaction with Anxa1 was measured for each of them by the following method.
The sensor chip was washed twice with piranha solution for 5 min and then immersed overnight in a solution of 0.9 mM hydroxy-EG3-undecanethiol (Dojindo) and 0.1 mM amino-EG6-undecanethiol (Dojindo). After washing with water, the chip was treated with 1 mM GMBS (Dojindo) and incubated at room temperature for 1 hr. After washing away the remaining GMBS, 1 mM peptide solution was added onto the chip and the chip was incubated for 30 min. The peptide-bound sensor chip was placed in a QCM apparatus (Single-Q, ASONE), and 0.5 ml of PBS was added to the well. Various doses of Anxa1 were injected into the reaction chamber and the binding affinity (kd value) for each peptide was determined.

[2] = QCM, peptide-bound sensor chip, various doses of Anxa1, read-out: kd value

| Kd (Anxa1; [2]) [nM] | SMILES | other results |
| --- | --- | --- |
|  | CC[C@H](C)[C@H](N)C(=O)N[C@@H](Cc1ccccc1)C(=O)N[C@@H](CC(C)C)C(=O)N[C@@H](CC(C)C)C(=O)N[C@@H](Cc1c[nH]c2ccccc12)C(=O)N[C@@H](CCC(N)=O)C(=O)N[C@@H](CCCNC(=N)N)C(=O)O [IF7, IFLLWQR] (H-IFLLWQR-OH; N-terminus and C-terminus assumed) | solubility [1]: poor solubility; stability ([1]; protease sensitivity): low stability |
| 54.2 | CC(C)C[C@@H](N)C(=O)N[C@H](CC(C)C)C(=O)N[C@H](CO)C(=O)N[C@H](Cc1c[nH]c2ccccc12)C(=O)N1CCC[C@@H]1C(=O)N[C@H](CO)C(=O)N[C@H](C)C(=O)O [dLLS7, L[D] L[D] S[D] W[D] P[D] S[D] A[D]] (H-[dL][dL][dS][dW][dP][dS][dA]-OH; N-terminus and C-terminus assumed) |  |
| 31.2 | CC(C)C[C@@H](N)C(=O)N[C@H](CCCNC(=N)N)C(=O)N[C@H](Cc1ccccc1)C(=O)N1CCC[C@@H]1C(=O)N[C@@H](C(=O)N[C@@H](C(=O)N[C@H](CC(C)C)C(=O)O)C(C)C)[C@H](C)O [dLRF7, L[D] R[D] F[D] P[D] T[D] V[D] L[D]] (H-[dL][dR][dF][dP][dT][dV][dL]-OH; N-terminus and C-terminus assumed) |  |
| 298 | CSCC[C@@H](N)C(=O)N1CCC[C@@H]1C(=O)N[C@@H](C(=O)N[C@H](CC(C)C)C(=O)N[C@@H](C(=O)N[C@H](Cc1ccccc1)C(=O)N[C@H](CCCNC(=N)N)C(=O)O)[C@H](C)O)[C@H](C)O [dMPT7, M[D] P[D] T[D] L[D] T[D] F[D] R[D]] (H-[dM][dP][dT][dL][dT][dF][dR]-OH; N-terminus and C-terminus assumed) |  |
| 90.3 | CC(C)C[C@@H](NC(=O)[C@@H](CC(C)C)NC(=O)[C@@H](CO)NC(=O)[C@H](NC(=O)[C@H]1CCCN1C(=O)[C@H](N)CO)[C@H](C)O)C(=O)N[C@H](Cc1ccccc1)C(=O)O [dSPT7, S[D] P[D] T[D] S[D] L[D] L[D] F[D]] (H-[dS][dP][dT][dS][dL][dL][dF]-OH; N-terminus and C-terminus assumed) |  |
|  | CC[C@@H](C)[C@@H](NC(=O)[C@H](N)[C@H](C)O)C(=O)N[C@@H](C(=O)N[C@H](Cc1c[nH]c2ccccc12)C(=O)N1CCC[C@@H]1C(=O)N[C@@H](C(=O)N[C@H](CCSC)C(=O)O)[C@H](C)O)[C@H](C)O [dTIT7, T[D] I[D] T[D] W[D] P[D] T[D] M[D]] | Kd (Anxa1; QCM method, dTIT7 and Anxa1, read-out: dissociation constant (Kd value)): 45.7 nM |
